From patent US20250235543A1, “MODIFIED PROTEINS AND PROTEIN DEGRADERS” (Cullgen (Shanghai), Inc., priority 2021, published 2025)

Tests used:
Cal-62 = assay: Cell viability assay, Cal-62; assay type: cell-based; settings: Homo sapiens, 72 h; Cal-62, TC, 3 days; read-out: Cellular Anti-proliferation activity (IC50)
Method: (§1) Cells were treated with CDK4/6 inhibitors palbociclib, ribociclib, or abemaciclib, or heterobifunctional compounds CPD-002 or CPD-031 following a 9-point serial dilution for 3 days.
(§2) Cells were seeded at a density of 2,000-5,000 cells per well in 96-well assay plates and treated with test compounds following a 10-point serial dilution for 3-6 days. Cell viability was determined using the CellTiter-Lumi assay kit according to the manufacturer's instructions. The dose-response curves were determined and IC50 values were calculated using the GraphPad Prism software following a nonlinear regression (least squares fit) method. Data presented was mean±standard deviation (SD) unless otherwise indicated.

OVCAR3 = assay: Cell viability assay, OVCAR3; assay type: cell-based; settings: Homo sapiens, OVCAR-3, 72 h; OVCAR3, OC, 3 days; read-out: Cellular Anti-proliferation activity (IC50)
Method: as §1, §2

MDA-MB-453 = assay: Cell viability assay, MDA-MB-453; assay type: cell-based; settings: Homo sapiens, 72 h; MDA-MB-453, TNBC, 3 days; read-out: Cellular Anti-proliferation activity (IC50)
Method: as §1, §2

[1] = test system: cyclin D1, cyclin D2, cyclin D3, CDK4 and CDK6; assay: Immunoblotting of cyclin D and CDK4/6 protein levels in Calu-1 cells; assay type: cell-based; settings: for cyclin D degradation after pretreatment with MG-132, MLN4924 or TAK-243: 2 hours pre-treatment, then 500 nM CPD-002, 500 nM CPD-004 or 100 nM CPD-031 for 4 h or 2 h; for time course of cyclin D1, cyclin D2 and cyclin D3 protein level reduction: CPD-002 at 500 nM, CPD-031 at 100 nM; for cyclin D1, cyclin D2, cyclin D3, CDK4 and CDK6 protein levels: indicated concentrations, 16 hours
Method: Calu-1 (FIG. 2A) or BT-549 (FIG. 2B) cells were treated with CPD-002, CPD-004, or palbociclib at indicated concentrations for 16 hours.
Calu-1 cells were treated with CPD-031 at indicated concentrations for 16 hours.
Calu-1 cells were treated with CPD-002 or CPD-031 at 500 nM or 100 nM, respectively for indicated period of time.
Calu-1 cells were pre-treated with DMSO, 20 μM MG-132 (MG), 5 μM MLN4924 (MLN) or 1 μM TAK-243 (TAK) for 2 hours, and subsequently incubated with 500 nM CPD-002, 500 nM CPD-004, or 100 nM CPD-031 for another 4 h or 2 h prior to immunoblotting (FIG. 5A-5B).
Calu-1 cells were treated with a dose range of negative control compounds CPD-042 or CPD-049 for 16 hours (FIG. 6A-6B).
Calu-1 cells were treated with reference compounds CP-10 or BSJ-03-123 at indicated concentrations for 8 hours.
Cultured cells were washed with cold PBS once and lysed in cold RIPA buffer supplemented with protease inhibitors and phosphatase inhibitors (Beyotime Biotechnology). The solutions were then incubated at 4° C. for 30 min with gentle agitation to fully lysed cells. Cell lysates were centrifuged at 13,000 rpm for 10 min at 4° C. and pellets were discarded. Total protein concentrations in the lysates were determined following BCA assays (Beyotime Biotechnology). Cell lysates were mixed with Laemmli loading buffer and heated at 99° C. for 5 min. Proteins were resolved on SDS-PAGE and visualized using Western ECL Substrate kits on a ChemiDoc MP Imaging system (Bio-Rad). Protein bands were quantitated using the Image Lab software provided by Bio-Rad.

Calu-1 = assay: Cell viability assay, Calu-1; assay type: cell-based; settings: Homo sapiens, 72 h; Calu-1, NSCLC, 3 days; read-out: Cellular Anti-proliferation activity (IC50)
Outline: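 Cells were exposed to a serial dilution of test compound for 3-6 days, or 3 days with a 9-point series for CDK4/6 inhibitors and heterobifunctional compounds. Viability was read by luminescence (CellTiter-Lumi). IC50 came from nonlinear least-squares regression of dose-response curves, reported as mean±SD.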

CDK4 = biological target: T1, CDK4 (Homo sapiens, UniProt P11802); assay: CDK4 percentage degradation in Calu-1 cells (immunoblotting); assay type: cell-based; settings: Calu-1 cells, 200 nM, 16 hours; read-out: CDK4 Degradation (200 nM)
T1 construct: endogenous in cells; host or cells: Calu-1
T1 sequence (P11802 2-303 limits assumed): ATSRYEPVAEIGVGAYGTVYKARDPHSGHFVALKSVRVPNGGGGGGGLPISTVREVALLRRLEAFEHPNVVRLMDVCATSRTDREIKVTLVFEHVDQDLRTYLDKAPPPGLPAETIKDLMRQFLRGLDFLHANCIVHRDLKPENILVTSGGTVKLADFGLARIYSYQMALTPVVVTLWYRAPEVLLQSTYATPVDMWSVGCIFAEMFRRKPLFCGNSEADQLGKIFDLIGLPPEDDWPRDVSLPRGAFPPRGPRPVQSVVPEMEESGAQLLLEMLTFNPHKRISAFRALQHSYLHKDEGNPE
T1 sequence (P24385 whole entry partner): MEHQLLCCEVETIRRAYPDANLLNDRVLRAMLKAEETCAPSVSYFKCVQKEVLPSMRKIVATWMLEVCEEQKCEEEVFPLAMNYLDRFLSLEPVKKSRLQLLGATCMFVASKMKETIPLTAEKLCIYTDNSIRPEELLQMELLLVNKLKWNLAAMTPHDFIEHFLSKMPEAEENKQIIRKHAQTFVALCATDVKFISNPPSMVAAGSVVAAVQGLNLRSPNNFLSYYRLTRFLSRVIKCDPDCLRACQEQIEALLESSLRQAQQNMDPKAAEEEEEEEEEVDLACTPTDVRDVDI
T1 sequence (Q16531 2-1140 limits assumed, further chain): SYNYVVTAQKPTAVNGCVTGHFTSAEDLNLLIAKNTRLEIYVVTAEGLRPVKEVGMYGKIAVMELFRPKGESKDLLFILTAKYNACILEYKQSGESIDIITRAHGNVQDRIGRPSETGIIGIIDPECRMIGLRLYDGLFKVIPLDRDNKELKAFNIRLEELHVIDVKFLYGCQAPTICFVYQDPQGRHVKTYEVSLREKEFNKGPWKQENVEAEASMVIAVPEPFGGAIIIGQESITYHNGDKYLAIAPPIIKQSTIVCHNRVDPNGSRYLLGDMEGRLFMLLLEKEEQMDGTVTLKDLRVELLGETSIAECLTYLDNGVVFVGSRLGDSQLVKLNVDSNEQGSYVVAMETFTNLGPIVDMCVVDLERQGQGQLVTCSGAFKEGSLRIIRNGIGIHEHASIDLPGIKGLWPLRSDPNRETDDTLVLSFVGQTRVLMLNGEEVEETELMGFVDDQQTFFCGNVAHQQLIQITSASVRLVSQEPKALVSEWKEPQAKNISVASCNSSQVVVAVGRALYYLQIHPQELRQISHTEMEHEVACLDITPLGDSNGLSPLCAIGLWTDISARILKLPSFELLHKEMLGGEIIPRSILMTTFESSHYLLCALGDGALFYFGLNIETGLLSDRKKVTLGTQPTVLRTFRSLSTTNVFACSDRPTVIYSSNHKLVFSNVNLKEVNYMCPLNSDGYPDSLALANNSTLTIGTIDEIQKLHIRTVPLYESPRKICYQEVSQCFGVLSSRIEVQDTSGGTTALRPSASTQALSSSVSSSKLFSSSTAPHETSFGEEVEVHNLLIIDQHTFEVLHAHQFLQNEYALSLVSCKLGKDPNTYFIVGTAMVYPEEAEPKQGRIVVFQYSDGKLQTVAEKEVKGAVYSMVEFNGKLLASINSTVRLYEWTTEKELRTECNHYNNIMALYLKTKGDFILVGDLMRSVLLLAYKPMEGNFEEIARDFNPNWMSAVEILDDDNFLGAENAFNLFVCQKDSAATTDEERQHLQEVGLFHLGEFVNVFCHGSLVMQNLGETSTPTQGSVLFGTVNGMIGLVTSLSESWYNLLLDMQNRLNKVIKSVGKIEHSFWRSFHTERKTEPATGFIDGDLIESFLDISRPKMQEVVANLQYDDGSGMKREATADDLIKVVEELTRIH
Outline: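 Cultured cells were rinsed once in cold PBS and lysed in cold RIPA buffer containing protease and phosphatase inhibitors, with gentle agitation at 4° C. for 30 min. Lysates were centrifuged at 13,000 rpm for 10 min at 4° C., and protein was quantified by BCA. Samples were then separated by SDS-PAGE, detected with ECL, and the CDK4 bands quantified in Image Lab.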

DDB1 = biological target: T2, DDB1 (Homo sapiens, UniProt Q16531, D705G/DEL396-460/DEL463-701/I704S/T703N); assay: SPR binding assay to immobilized DDB1ΔBPB; settings: binding affinities to DDB1
T2 construct: His6 (N, cleaved yes); TEV protease cleavage site (N, cleaved yes); made in house; host or cells: SF9 insect cells, Bac-to-Bac baculovirus, pFastBacHTB vector
T2 sequence (Q16531 other isoform, or with tags, fused parts or gaps DEL396-460/DEL463-701/T703N/I704S/D705G): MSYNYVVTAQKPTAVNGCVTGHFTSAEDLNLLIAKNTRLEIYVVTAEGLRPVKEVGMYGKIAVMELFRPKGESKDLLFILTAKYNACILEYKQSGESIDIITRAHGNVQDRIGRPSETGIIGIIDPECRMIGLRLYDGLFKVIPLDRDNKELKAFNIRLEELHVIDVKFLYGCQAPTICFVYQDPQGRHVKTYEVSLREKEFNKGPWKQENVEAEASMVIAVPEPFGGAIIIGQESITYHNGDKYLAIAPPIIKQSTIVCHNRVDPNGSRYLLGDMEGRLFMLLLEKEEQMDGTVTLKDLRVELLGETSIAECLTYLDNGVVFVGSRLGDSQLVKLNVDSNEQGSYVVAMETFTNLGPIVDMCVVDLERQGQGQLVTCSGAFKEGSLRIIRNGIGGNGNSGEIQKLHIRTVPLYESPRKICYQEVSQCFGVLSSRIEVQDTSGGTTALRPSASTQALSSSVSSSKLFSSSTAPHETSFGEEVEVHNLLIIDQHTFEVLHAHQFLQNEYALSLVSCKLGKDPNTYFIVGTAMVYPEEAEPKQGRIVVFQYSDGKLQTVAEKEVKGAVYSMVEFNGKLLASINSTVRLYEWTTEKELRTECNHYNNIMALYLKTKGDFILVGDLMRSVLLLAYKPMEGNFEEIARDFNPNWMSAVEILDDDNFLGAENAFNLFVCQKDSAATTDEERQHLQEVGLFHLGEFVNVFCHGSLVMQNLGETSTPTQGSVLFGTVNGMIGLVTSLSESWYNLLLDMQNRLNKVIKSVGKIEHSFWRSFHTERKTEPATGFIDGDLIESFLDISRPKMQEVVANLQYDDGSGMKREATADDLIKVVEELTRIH
Outline: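 Untagged Sf9-expressed DDB1ΔBPB (BPB domain aa 396-705 replaced by GNGNSG linker) amine-coupled to CM5 chip at 10,000-12,000 RU; 25° C, HBS-EP pH 7.4 with 5% DMSO. Compounds injected multi-cycle at 100 μM-3.125 μM (6-point two-fold); double-referenced, solvent-corrected data fit to steady-state model for Kd.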

MIA PaCa-2 = assay: Cell viability assay, MIA PaCa-2; assay type: cell-based; settings: Homo sapiens, 72 h; MIA PaCa-2, PC, 3 days; read-out: Cellular Anti-proliferation activity (IC50)
Method: as §1, §2

IC50 (OVCAR3) [nM]	IC50 (MDA-MB-453) [nM]	IC50 (Calu-1) [nM]	inhibition at 0.2 µM (CDK4) [%]	Kd (DDB1) [nM]	IC50 (MIA PaCa-2) [nM]	SMILES	IC50 (Cal-62) [nM]	cyclin D degradation after pretreatment with MG-132, MLN4924 or TAK-243 [1]	time course of cyclin D1, cyclin D2 and cyclin D3 protein level reduction [1]	cyclin D1, cyclin D2, cyclin D3, CDK4 and CDK6 protein levels [1]
39	300	9	> 80	< 20000	57	CC(=O)c1c(C)c2cnc(Nc3ccc(N4CCN(CC(=O)NCCOCCOCCOCCOCCOCCNc5ccc(C(=O)Nc6nc(C)c(C)s6)c(C)c5)CC4)cn3)nc2n(C2CCCC2)c1=O [CPD-031, 4-((1-(4-(6-((6-Acetyl-8-cyclopentyl-5-methyl-7-oxo-7,8-dihydropyrido[2,3-d]pyrimidin-2-yl)amino)pyridin-3-yl)piperazin-1-yl)-2-oxo-6,9,12,15,18-pentaoxa-3-azaicosan-20-yl)amino)-N-(4,5-dimethylthiazol-2-yl)-2-methylbenzamide]	5	diminished the cyclin D degradation effect	significantly reduced as early as one hour following treatment	downregulated the protein levels of cyclin D1, cyclin D2, cyclin D3, CDK4, CDK6, and downstream phosphorylated Rb in a concentration-dependent manner
107	741	68	50 to 80	20000 to 50000	175	CC(=O)c1c(C)c2cnc(Nc3ccc(N4CCN(CC(=O)NCCOCCOCCOCCOCCOCCNc5ccc(C(=O)Nc6ncc(C)s6)c(C)c5)CC4)cn3)nc2n(C2CCCC2)c1=O [CPD-002, 4-((1-(4-(6-((6-Acetyl-8-cyclopentyl-5-methyl-7-oxo-7,8-dihydropyrido[2,3-d]pyrimidin-2-yl)amino)pyridin-3-yl)piperazin-1-yl)-2-oxo-6,9,12,15,18-pentaoxa-3-azaicosan-20-yl)amino)-2-methyl-N-(5-methylthiazol-2-yl)benzamide]	50	diminished the cyclin D degradation effect	significantly reduced as early as one hour following treatment	reduced cyclin D1, cyclin D2, cyclin D3, CDK4 and CDK6 protein levels in a concentration-dependent manner
